Test results taken from PubChem BioAssay AID1982 (Sanford-Burnham Center for Chemical Genomics, 2009).
Calls of active or inactive are those of the source. How the calls were made is not given here.

Key:
Experiment in all cases: kinase panel binding selectivity, selectivity assay, biochemical, KINOMEscan (AID 1982)
[1] = system: ACVR1B; conditions: KINOMEscan 353-kinase binding panel, qPCR, at 10 µM, hits give low values
[2] = system: AURKC; conditions: KINOMEscan 353-kinase binding panel, qPCR, at 10 µM, hits give low values
[3] = biological target: Aurora kinase B (Homo sapiens) (UniProt Q96GD4); conditions: KINOMEscan 353-kinase binding panel, qPCR; AURKB; at 10 µM; hits give low values
Sequence of Aurora kinase B (Homo sapiens) (Q96GD4 whole entry, looked up): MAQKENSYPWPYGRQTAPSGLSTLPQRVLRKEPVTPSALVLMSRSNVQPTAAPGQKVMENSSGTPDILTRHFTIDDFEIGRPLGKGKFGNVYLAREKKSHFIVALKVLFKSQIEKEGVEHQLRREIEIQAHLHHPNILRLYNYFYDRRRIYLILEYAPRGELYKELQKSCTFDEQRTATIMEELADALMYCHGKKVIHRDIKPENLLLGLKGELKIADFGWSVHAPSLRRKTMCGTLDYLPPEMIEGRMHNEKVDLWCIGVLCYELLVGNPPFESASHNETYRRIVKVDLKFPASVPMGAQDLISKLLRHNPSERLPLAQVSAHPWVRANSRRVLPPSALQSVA

[4] = system: CAMKK1; conditions: KINOMEscan 353-kinase binding panel, qPCR, at 10 µM, hits give low values
[5] = biological target: Calcium/calmodulin-dependent protein kinase type 1D (Homo sapiens) (UniProt Q8IU85); conditions: KINOMEscan 353-kinase binding panel, qPCR; CAMK1D; at 10 µM; hits give low values
Sequence of Calcium/calmodulin-dependent protein kinase type 1D (Homo sapiens) (Q8IU85 whole entry, looked up): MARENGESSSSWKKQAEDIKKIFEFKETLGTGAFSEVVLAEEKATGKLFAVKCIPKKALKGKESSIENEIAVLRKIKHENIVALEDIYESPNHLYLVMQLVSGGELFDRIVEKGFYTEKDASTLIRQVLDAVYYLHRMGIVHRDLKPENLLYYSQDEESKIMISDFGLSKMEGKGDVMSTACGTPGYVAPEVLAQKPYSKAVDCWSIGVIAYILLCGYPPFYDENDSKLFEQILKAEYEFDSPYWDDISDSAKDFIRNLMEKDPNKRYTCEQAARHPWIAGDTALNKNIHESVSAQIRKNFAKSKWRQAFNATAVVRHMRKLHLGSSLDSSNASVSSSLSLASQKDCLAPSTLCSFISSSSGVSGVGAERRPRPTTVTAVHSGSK

[6] = biological target: Cyclin-dependent kinase 5 (Homo sapiens) (UniProt Q00535); conditions: KINOMEscan 353-kinase binding panel, qPCR; CDK5; at 10 µM; hits give low values
Sequence of Cyclin-dependent kinase 5 (Homo sapiens) (Q00535 whole entry, looked up): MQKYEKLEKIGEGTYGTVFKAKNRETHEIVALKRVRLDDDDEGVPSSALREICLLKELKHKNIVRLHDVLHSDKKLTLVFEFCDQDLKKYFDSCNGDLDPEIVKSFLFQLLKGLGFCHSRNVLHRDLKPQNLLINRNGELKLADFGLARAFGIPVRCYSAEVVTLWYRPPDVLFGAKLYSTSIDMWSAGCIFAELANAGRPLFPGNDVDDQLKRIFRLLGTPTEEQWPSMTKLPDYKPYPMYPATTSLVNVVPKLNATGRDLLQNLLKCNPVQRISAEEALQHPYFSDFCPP

[7] = biological target: Dual specificity protein kinase CLK3 (Homo sapiens) (UniProt P49761); conditions: KINOMEscan 353-kinase binding panel, qPCR, at 10 µM, hits give low values
Sequence of Dual specificity protein kinase CLK3 (Homo sapiens) (P49761 whole entry, looked up): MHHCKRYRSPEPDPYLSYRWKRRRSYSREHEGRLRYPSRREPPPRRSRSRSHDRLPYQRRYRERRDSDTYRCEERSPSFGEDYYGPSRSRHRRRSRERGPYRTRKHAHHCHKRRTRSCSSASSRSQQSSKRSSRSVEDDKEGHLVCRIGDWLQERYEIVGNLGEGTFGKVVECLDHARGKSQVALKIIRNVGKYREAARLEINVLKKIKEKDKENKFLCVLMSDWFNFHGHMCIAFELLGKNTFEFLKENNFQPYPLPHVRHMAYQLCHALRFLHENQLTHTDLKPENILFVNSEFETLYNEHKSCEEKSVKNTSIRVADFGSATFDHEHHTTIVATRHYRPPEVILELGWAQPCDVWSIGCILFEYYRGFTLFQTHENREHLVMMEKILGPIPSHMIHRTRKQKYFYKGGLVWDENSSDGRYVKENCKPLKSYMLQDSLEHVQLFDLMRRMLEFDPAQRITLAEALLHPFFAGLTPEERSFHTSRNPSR

[8] = biological target: Glycogen synthase kinase-3 alpha (Homo sapiens) (UniProt P49840); conditions: KINOMEscan 353-kinase binding panel, qPCR; GSK3A; at 10 µM; hits give low values
Sequence of Glycogen synthase kinase-3 alpha (Homo sapiens) (P49840 whole entry, looked up): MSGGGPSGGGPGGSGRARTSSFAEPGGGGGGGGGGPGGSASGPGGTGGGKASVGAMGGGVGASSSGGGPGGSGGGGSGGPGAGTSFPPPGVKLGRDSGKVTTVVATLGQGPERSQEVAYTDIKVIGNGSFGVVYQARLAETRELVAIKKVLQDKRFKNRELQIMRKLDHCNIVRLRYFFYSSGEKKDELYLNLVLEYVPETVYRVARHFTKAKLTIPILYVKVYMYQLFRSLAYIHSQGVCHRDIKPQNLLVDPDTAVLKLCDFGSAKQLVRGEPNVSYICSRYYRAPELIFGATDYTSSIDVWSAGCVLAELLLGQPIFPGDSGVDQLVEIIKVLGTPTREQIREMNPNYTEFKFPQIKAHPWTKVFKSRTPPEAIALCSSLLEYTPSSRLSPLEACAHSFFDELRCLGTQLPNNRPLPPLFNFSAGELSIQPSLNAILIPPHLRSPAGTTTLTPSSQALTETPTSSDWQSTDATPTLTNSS

[9] = system: HIPK1; conditions: KINOMEscan 353-kinase binding panel, qPCR, at 10 µM, hits give low values
[10] = biological target: Inhibitor of nuclear factor kappa-B kinase subunit alpha (Homo sapiens) (UniProt O15111); conditions: KINOMEscan 353-kinase binding panel, qPCR; IKK-alpha; at 10 µM; hits give low values
[11] = system: LIMK2; conditions: KINOMEscan 353-kinase binding panel, qPCR, at 10 µM, hits give low values
[12] = system: MEK3; conditions: KINOMEscan 353-kinase binding panel, qPCR, at 10 µM, hits give low values
[13] = system: MST4; conditions: KINOMEscan 353-kinase binding panel, qPCR, at 10 µM, hits give low values
[14] = system: MUSK; conditions: KINOMEscan 353-kinase binding panel, qPCR, at 10 µM, hits give low values
[15] = biological target: Macrophage colony-stimulating factor 1 receptor (Homo sapiens) (UniProt P07333); conditions: KINOMEscan 353-kinase binding panel, qPCR; CSF1R; at 10 µM; hits give low values
[16] = biological target: Macrophage-stimulating protein receptor (Homo sapiens) (UniProt Q04912); conditions: KINOMEscan 353-kinase binding panel, qPCR; MST1R; at 10 µM; hits give low values
[17] = biological target: Mitogen-activated protein kinase 14 (Homo sapiens) (UniProt Q16539); conditions: KINOMEscan 353-kinase binding panel, qPCR; p38-alpha; at 10 µM; hits give low values
Sequence of Mitogen-activated protein kinase 14 (Homo sapiens) (Q16539 whole entry, looked up): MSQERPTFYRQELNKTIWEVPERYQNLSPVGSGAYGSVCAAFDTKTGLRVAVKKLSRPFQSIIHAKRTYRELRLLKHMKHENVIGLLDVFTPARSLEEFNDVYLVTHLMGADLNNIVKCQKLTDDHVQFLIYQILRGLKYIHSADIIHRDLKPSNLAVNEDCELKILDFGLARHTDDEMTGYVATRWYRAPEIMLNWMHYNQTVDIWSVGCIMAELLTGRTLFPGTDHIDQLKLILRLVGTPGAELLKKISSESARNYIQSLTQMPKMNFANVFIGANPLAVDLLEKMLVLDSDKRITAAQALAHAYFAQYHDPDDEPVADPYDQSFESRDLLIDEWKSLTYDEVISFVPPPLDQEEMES

[18] = biological target: Mitogen-activated protein kinase kinase kinase 10 (Homo sapiens) (UniProt Q02779); conditions: KINOMEscan 353-kinase binding panel, qPCR; MLK2; at 10 µM; hits give low values
[19] = biological target: Mitogen-activated protein kinase kinase kinase kinase 2 (Homo sapiens) (UniProt Q12851); conditions: KINOMEscan 353-kinase binding panel, qPCR; MAP4K2; at 10 µM; hits give low values
Sequence of Mitogen-activated protein kinase kinase kinase kinase 2 (Homo sapiens) (Q12851 whole entry, looked up): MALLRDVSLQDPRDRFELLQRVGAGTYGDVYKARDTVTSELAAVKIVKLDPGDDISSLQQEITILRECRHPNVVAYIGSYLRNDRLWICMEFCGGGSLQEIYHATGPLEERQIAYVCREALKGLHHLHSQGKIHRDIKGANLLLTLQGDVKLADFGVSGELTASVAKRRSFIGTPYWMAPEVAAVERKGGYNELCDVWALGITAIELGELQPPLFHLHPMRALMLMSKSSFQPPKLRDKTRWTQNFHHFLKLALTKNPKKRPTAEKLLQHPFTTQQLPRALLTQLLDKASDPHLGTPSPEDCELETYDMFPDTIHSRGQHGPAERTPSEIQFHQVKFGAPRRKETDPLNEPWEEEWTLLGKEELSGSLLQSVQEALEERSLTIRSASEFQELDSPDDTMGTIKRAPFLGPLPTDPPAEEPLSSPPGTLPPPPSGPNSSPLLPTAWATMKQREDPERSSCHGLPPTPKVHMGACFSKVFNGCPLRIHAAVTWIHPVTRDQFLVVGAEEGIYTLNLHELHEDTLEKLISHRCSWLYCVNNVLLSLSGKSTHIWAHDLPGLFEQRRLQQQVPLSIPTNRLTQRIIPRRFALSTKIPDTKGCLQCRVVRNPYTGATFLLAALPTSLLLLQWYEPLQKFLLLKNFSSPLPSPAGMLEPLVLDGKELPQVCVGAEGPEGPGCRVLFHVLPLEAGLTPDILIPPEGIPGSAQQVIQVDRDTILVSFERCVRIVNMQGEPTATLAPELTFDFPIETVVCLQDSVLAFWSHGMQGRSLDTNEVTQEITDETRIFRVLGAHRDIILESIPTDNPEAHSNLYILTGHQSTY

[20] = system: NEK5; conditions: KINOMEscan 353-kinase binding panel, qPCR, at 10 µM, hits give low values
[21] = system: PAK2; conditions: KINOMEscan 353-kinase binding panel, qPCR, at 10 µM, hits give low values
[22] = system: PKMYT1; conditions: KINOMEscan 353-kinase binding panel, qPCR, at 10 µM, hits give low values
[23] = biological target: Protein-tyrosine kinase 6 (Homo sapiens) (UniProt Q13882); conditions: KINOMEscan 353-kinase binding panel, qPCR; PTK6; at 10 µM; hits give low values
[24] = system: RIPK2; conditions: KINOMEscan 353-kinase binding panel, qPCR, at 10 µM, hits give low values
[25] = system: RPS6KA1(Kin.Dom.2); conditions: KINOMEscan 353-kinase binding panel, qPCR, at 10 µM, hits give low values
[26] = system: RPS6KA2(Kin.Dom.2); conditions: KINOMEscan 353-kinase binding panel, qPCR, at 10 µM, hits give low values
[27] = system: RPS6KA6(Kin.Dom.1); conditions: KINOMEscan 353-kinase binding panel, qPCR, at 10 µM, hits give low values
[28] = biological target: Receptor tyrosine-protein kinase erbB-2 (Homo sapiens) (UniProt P04626); conditions: KINOMEscan 353-kinase binding panel, qPCR; ERBB2; at 10 µM; hits give low values
Sequence of Receptor tyrosine-protein kinase erbB-2 (Homo sapiens) (P04626 whole entry, looked up): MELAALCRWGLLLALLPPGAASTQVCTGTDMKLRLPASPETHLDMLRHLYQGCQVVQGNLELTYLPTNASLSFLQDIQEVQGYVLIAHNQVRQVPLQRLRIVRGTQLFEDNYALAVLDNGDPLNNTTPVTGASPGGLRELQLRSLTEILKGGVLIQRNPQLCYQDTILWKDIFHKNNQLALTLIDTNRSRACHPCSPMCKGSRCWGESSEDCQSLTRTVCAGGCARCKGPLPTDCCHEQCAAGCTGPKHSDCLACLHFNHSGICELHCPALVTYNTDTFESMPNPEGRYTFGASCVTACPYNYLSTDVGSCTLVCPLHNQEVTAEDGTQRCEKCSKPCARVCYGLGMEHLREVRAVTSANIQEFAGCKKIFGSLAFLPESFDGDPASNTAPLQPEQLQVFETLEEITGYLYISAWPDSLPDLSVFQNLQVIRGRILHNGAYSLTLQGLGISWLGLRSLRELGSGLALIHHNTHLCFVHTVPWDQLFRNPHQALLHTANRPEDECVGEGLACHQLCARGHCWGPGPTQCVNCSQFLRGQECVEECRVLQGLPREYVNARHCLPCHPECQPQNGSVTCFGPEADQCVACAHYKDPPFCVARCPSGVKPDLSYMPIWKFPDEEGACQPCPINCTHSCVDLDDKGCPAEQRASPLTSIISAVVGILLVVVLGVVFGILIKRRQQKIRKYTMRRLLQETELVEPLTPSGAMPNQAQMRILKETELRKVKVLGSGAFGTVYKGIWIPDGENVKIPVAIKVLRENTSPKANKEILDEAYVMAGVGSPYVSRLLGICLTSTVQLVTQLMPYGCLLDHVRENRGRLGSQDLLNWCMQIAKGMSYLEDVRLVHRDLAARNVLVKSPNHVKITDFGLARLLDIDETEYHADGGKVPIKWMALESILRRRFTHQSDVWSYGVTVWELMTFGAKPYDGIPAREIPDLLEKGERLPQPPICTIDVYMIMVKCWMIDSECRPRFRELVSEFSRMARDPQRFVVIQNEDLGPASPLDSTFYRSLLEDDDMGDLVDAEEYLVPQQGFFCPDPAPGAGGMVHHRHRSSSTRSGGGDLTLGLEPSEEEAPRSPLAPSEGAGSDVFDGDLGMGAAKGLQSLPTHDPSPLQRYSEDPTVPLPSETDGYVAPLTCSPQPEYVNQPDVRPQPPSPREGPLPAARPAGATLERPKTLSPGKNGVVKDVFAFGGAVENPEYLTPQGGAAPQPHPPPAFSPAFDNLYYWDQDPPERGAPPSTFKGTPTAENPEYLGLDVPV

[29] = system: STK35; conditions: KINOMEscan 353-kinase binding panel, qPCR, at 10 µM, hits give low values
[30] = biological target: Serine/threonine-protein kinase BRSK1 (Homo sapiens) (UniProt Q8TDC3); conditions: KINOMEscan 353-kinase binding panel, qPCR, at 10 µM, hits give low values
[31] = biological target: Serine/threonine-protein kinase NLK (Homo sapiens) (UniProt Q9UBE8); conditions: KINOMEscan 353-kinase binding panel, qPCR, at 10 µM, hits give low values
[32] = biological target: Serine/threonine-protein kinase Nek2 (Homo sapiens) (UniProt P51955); conditions: KINOMEscan 353-kinase binding panel, qPCR, at 10 µM, hits give low values
[33] = system: TLK2; conditions: KINOMEscan 353-kinase binding panel, qPCR, at 10 µM, hits give low values
[34] = system: TNIK; conditions: KINOMEscan 353-kinase binding panel, qPCR, at 10 µM, hits give low values
[35] = biological target: Tyrosine-protein kinase Lck (Homo sapiens) (UniProt P06239); conditions: KINOMEscan 353-kinase binding panel, qPCR, at 10 µM, hits give low values
Sequence of Tyrosine-protein kinase Lck (Homo sapiens) (P06239 whole entry, looked up): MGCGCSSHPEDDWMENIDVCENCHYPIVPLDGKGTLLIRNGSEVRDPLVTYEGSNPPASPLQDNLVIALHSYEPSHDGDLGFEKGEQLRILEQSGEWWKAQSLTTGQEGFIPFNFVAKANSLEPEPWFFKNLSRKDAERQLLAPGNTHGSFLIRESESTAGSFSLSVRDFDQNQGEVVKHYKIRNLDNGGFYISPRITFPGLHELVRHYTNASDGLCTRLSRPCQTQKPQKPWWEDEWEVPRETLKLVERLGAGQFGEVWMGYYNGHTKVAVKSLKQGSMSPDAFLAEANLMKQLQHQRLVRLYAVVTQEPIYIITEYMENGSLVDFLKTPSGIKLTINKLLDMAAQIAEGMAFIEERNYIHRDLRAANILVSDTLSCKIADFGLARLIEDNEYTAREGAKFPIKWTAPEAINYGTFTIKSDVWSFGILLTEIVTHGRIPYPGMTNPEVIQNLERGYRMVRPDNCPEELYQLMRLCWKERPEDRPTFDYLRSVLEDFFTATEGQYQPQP

[36] = system: p38-beta; conditions: KINOMEscan 353-kinase binding panel, qPCR, at 10 µM, hits give low values

Measured: percent of control binding

Cc1cc2nc(NCCCO)n(CC(=O)c3cc(C(C)(C)C)c(O)c(C(C)(C)C)c3)c2cc1C
inactive: [1] 84% | [2] 100% | [3] 100% | [4] 78% | [5] 100% | [6] 76% | [7] 100% | [8] 99% | [9] 100% | [10] 74% | [11] 80% | [12] 100% | [13] 100% | [14] 100% | [15] 72% | [16] 100% | [17] 96% | [18] 100% | [19] 89% | [20] 91% | [21] 84% | [22] 100% | [23] 100% | [24] 83% | [25] 93% | [26] 100% | [27] 97% | [28] 100% | [29] 100% | [30] 100% | [31] 100% | [32] 84% | [33] 100% | [34] 100% | [35] 100% | [36] 100%
